Patent US20200330447A1, “CANCER TREATMENT VIA REPOSITIONED TRICYCLIC ANTI-DEPRESSANT-LIKE DRUGS AS ANTI-CANCER AGENTS AND NEW COMBINATIONS OF SUCH DRUGS” (Board of Supervisors of Louisiana State University and …, priority 2015, published 2020)

Key:
Type in all cases: cell-based
A172 cells [1] = test: Invasive structures in 3D culture
mTOR signaling pathway = test: Western blot of phosphorylated S6K (mTOR signaling); conditions: A172 cells, 4 hours
Method: Deptropine and pizotifen were added to A172 cells for 4 hours and western blot analysis was performed to measure levels of phosphorylated S6K, indicative of active mTOR signaling.

A172 glioblastoma cells [2] = test: Growth factor (HGF, EGF) induced trafficking of lysosomes to cell periphery; conditions: 10 μM overnight, HGF (33 ng/ml) or EGF (100 ng/ml)
Method: In this embodiment deptropine and pizotifen also block lysosome peripheral movement in glioma cells treated with the growth factors HGF and EGF. Both of these growth factors interact with their receptors, c-Met and EGFR, respectively to induce glioma invasion. In this example, A172 glioblastoma cells were treated overnight with 10 μM deptropine or pizotifen in the presence or absence of HGF (33 ng/ml) or EGF (100 ng/ml). At the end of the incubation time, cells were fixed and stained for LAMP-1, filamentous actin, and nuclei. Representative merged IF images depicting the effect of DMSO, 10 μM deptropine or pizotifen and/or HGF, EGF on the distribution of lysosomes (red in color images) in A172 glioblastoma cells. Also shown here are actin (green in color images) and nuclei (blue in color images).

A172 glioblastoma cells [3] = test: Acidic media pH induced lysosome distribution, LAMP-1 IF imaging; conditions: for acidic media induced trafficking of lysosomes to the cell periphery: 5 or 10 μM overnight, then low pHe media with drug 2 h; for lysosomal outward movement, early time: 5 or 10 μM, 2 h then low pHe media with drugs 2 h (4 hours); for inward movement of lysosomes, single drug: one micromolar alone
Method: A172 glioblastoma cells were treated overnight with 5 or 10 μM deptropine or pizotifen or with the deptropine or pizotifen in combination at 5 μM concentration. The next day, media was change to low pHe media containing deptropine or pizotifen and the cells were incubated for an additional 2 h. EIPA is a known inhibitor of lysosomal outward movement and represents the positive control. At the end of the incubation time, cells were fixed and stained for LAMP-1, filamentous actin and nuclei. Representative merged IF images depicting the effect of pHe 7.4, pHe 6.4, DMSO or deptropine and pizotifen on the distribution of lysosomes in A172 glioblastoma cells. On color versions of the Figure, red puncta are lysosomes, blue is nuclei and green is actin. As could be seen, lysosomes appear more peripherally distributed in A172 glioma cells than in cells treated with concentrations of 5 to 10 micromolar deptropine or pizotifen.
Cells were treated as described above with FIG. 2 but included a concentration of 0.1 micromolar and 1 micromolar deptropine and pizotifen.
Turning to FIG. 7, an additional aspect of this technology is how quickly deptropine and pizotifen act to move lysosomes towards the nucleus. […] A172 glioblastoma cells were treated with the 5 or 10 μM deptropine or pizofifen for 2 h and then with low pHe media containing the drugs for an additional 2 hours. At the end of incubation time, cells were fixed and stained for LAMP-1, filamentous actin, and nuclei. Representative merged IF images depicting the effect of DMSO, 5 and 10 μM deptropine or pizotifen upon 4 hours on the distribution of lysosomes, colored red in color images, in A172 glioblastoma cells. Also shown in color images are actin, colored green, and nuclei, colored blue.

A172 glioblastoma cells [4] = test: Wound motility (migration) assay, Incucyte; conditions: for motility: 5 or 10 μM, 8 h prior to wounding; for motility (percent migration), single drug: either drug alone at 10 μM
Method: (§1) An important aspect of this technology is the showing that deptropine and pizotifen block tumor invasion using 3D assays. […] For this experiment A172 glioblastoma cells were treated with 5 or 10 μM deptropine or pizotifen or drug mix at 5 μM concentration for 8 h prior to the wounding and the addition of matrigel. Upon wounding, cells were allowed to migrate or invade through matrigel in the presence of DMSO, 5 or 10 μM deptropine or pizotifen or the drug mix at 5 μM concentration. EIPA, a known inhibitor of lysosomal outward movement, is the positive control. Motility and invasion were calculated by Incucyte platform that acquires real time images of invasion and motility and calculate the relative wound density percentage at different time points. Percent migration (FIG. 6A) or invasion (FIG. 6B) through matrigel in A172 glioblastoma cells in the presence of DMSO, 5 or 10 μM deptropine or pizotifen or the drug mix at 5 μM concentration. Error bars represent s.e.m. of 5 separate experiments. # statistical significance, p<0.001, versus both 1% FBS and DMSO; *, p<0.01 versus both 1% FBS and DMSO

A172 cells [5] = test: Standard MTS assay (proliferation); conditions: concentrations up to 10 micromolar
Method: A very beneficial aspect of the treatment with deptropine and pizotifen is shown in FIG. 11, namely that the actions of deptropine and pizotifen are not the result of toxicity. The standard MTS assay was performed for A172 cells in the presence of the indicate concentrations of deptropine and pizotifen.

A172 glioblastoma cells [6] = test: Wound invasion through matrigel, Incucyte; conditions: for invasion: 5 or 10 μM, 8 h prior to wounding and addition of matrigel
Method: as §1

LC3-II = test: Autophagy: LC3-I/LC3-II western blot and GFP-LC3II microscopy; conditions: A172 cells, overnight; for levels of LC3-II, western blot: deptropine 5 or 10 micromolar, pizotifen 5 micromolar; for association of GFP-LC3-II with puncta representing autophagosomes: microscopy
Method: A further embodiment of this technology is the use of deptropine and pizotifen to induce autophagy. A172 cells were treated with EIPA (1), Serum (2), Serum Free (3), DMSO (4, solvent control), rapamycin 0.5 micromolar (5), one micromolar (6), deptropine at 5 micromolar (7), 10 micromolar (8) or pizotifen at 5 micromolar (9) overnight and GFP-LC3II was visualized by microscopy or western blot analysis was performed to detect LC3-I and LC3-II forms.

SMILES | number of invasive structures formed in 3D culture (A172 cells [1]) | phosphorylation of S6K (mTOR signaling pathway) | trafficking of lysosomes to cell periphery induced by growth factors (A172 glioblastoma cells [2]) | acidic media induced trafficking of lysosomes to the cell periphery (A172 glioblastoma cells [3]) | lysosomal outward movement, early time (A172 glioblastoma cells [3]) | inward movement of lysosomes, single drug (A172 glioblastoma cells [3]) | motility (A172 glioblastoma cells [4]) | motility (percent migration), single drug (A172 glioblastoma cells [4]) | proliferation (MTS) (A172 cells [5]) | invasion (A172 glioblastoma cells [6]) | levels of LC3-II, western blot (LC3-II) | association of GFP-LC3-II with puncta representing autophagosomes (LC3-II) | invasion through matrigel (percent invasion) (A172 glioblastoma cells [6]; 10 μM)
CN1[C@@H]2CC[C@H]1C[C@@H](OC1c3ccccc3CCc3ccccc31)C2 [deptropine, 3a-[(10, 11-dihydro-5H-dibenzo[a,d]cyclohepten-5-yl)oxy]1aH,5aH-tropane] | effectively reduce the number of invasive structures | eliminates the phosphorylation of S6K | block trafficking of lysosomes to cell periphery | blocks acidic media induced trafficking of lysosomes to the cell periphery | prevent lysosomal outward movement | only a marginal effect | decrease | reduces motility but to a level that is determined to be significant | do not inhibit proliferation | decrease | increases the levels of the proteins LC3-II | increase the association GFP-LC3-II with puncta | –
CN1CCC(=C2c3ccccc3CCc3sccc32)CC1 [pizotifen, 4-(1-methyl-4-piperidylidine)-9,10-dihydro-4H-benzo-[4,5]cyclohepta[1,2]-thiophene] | effectively reduce the number of invasive structures | eliminates the phosphorylation of S6K | block trafficking of lysosomes to cell periphery | blocks acidic media induced trafficking of lysosomes to the cell periphery | prevent lysosomal outward movement | only a marginal effect | decrease | reduces motility but to a level that is determined to be significant | do not inhibit proliferation | decrease | increases the levels of the proteins LC3-II | increase the association GFP-LC3-II with puncta | significantly reduces invasion
